Reference: patent US4324728A, “Compound nanaomycin A and derivatives thereof and a process for producing the same” (The Kitasato Institute, priority 1976, dated 1982)
In brackets after ≈: the same amount, converted by molar mass. Where two headings read alike, the source gives them in different places.

Columns and labels:
Escherichia coli NIHJ = experiment: Minimal inhibitory concentration (agar); type: cell-based; details: 48 h, nutrient agar, pH 7.0, 2 days, 37° C.
Staphylococcus aureus = experiment: Growth inhibition (text summary of Table 1); type: cell-based; details: 48 h, read-out: concentration at which growth is inhibited
Experimental: (§1) Medium N nutrient agar (pH 7.0, 2 days, 37° C.)

Mycoplasma gallisepticum = experiment: Therapeutic effect on chronic respiratory disease of chickens; type: in vivo
Aspergillus niger = experiment: Minimal inhibitory concentration (agar); type: cell-based; details: Aspergillus niger, 96 h; potato agar, pH 6.4, 4 days, 27° C.; read-out: MIC
Experimental: Minimal inhibitory concentration was assayed by agar dilution method
(potato agar, pH 6.4, 27° C., 4 days).
P potato agar (pH 6.4, 4 days, 27° C.)

[1] = system: fungi belonging to the genus Trichophyton; experiment: Growth inhibition (text summary of Table 1); type: cell-based; details: 96 h, some fungi of the genus, read-out: concentration at which growth is inhibited
Experimental: | P potato agar (pH 6.4, 4 days, 27° C.)

Mycoplasma gallinarum = experiment: Minimal inhibitory concentration (PPLO agar); type: cell-based; details: Mycoplasmopsis gallinarum, 192 h, Hokken PPLO agar, pH 7.8, 8 days, 37° C.
Experimental: (§2) H Hokken PPLO agar (pH 7.8, 8 days, 37° C.)
(§3) MIC Minimal inhibitory concentration
(§4) E Eiken PPLO agar (pH 7.8, 8 days, 37° C.)

Mycoplasma iners = experiment: Minimal inhibitory concentration (PPLO agar); type: cell-based; details: Mycoplasmopsis iners, 192 h; Hokken PPLO agar, pH 7.8, 8 days, 37° C.
Experimental: as §2, §3, §4

Mycoplasma pneumoniae = experiment: Minimal inhibitory concentration (PPLO agar); type: cell-based; details: 192 h, Eiken PPLO agar, pH 7.8, 8 days, 37° C.
[2] = system: Mycoplasma gallisepticum KP-13; experiment: Minimal inhibitory concentration (PPLO agar); type: cell-based; details: Mycoplasmoides gallisepticum, KP13, 192 h, pH 7.8, 8 days, 37° C.
Experimental: as §2, §4, §3

[3] = system: Acholeplasma laidlawii (B) Bml; experiment: Minimal inhibitory concentration (PPLO agar); type: cell-based; details: 192 h, pH 7.8, 8 days, 37° C.
Experimental: as §2, §4, §3

[4] = system: Acholeplasma laidlawii (A) PG8; experiment: Minimal inhibitory concentration (PPLO agar); type: cell-based; details: pH 7.8, 8 days, 37° C.
Experimental: as §2, §4, §3

[5] = system: Mycoplasma gallisepticum S-6; experiment: Minimal inhibitory concentration (PPLO agar); type: cell-based; details: Mycoplasmoides gallisepticum, S6, 192 h, pH 7.8, 8 days, 37° C.
Experimental: as §2, §4, §3

[6] = system: Mycoplasma gallisepticum 333P (Spiramycin resistant); experiment: Minimal inhibitory concentration (PPLO agar); type: cell-based
Experimental: as §2, §4, §3

Shigella flexneri = experiment: Minimal inhibitory concentration (agar); type: cell-based; details: 48 h, nutrient agar, pH 7.0, 2 days, 37° C.
Experimental: as §1, §3
(§5) N nutrient agar (pH 7.0, 2 days, 37° C.)

Pseudomonas aeruginosa = experiment: Minimal inhibitory concentration (agar); type: cell-based; details: 48 h, nutrient agar, pH 7.0, 2 days, 37° C.
Experimental: as §1, §3, §5

[7] = system: parasite of the genus Tricophyton; experiment: Therapeutic effect on infectious diseases in guinea pigs and cattle; type: in vivo; details: concentration 0.01-1%
Experimental: When dermatomycosis of cattle caused by mass infection of Trichophyton verrucosum is treated with nanaomycin A, nanaomycin A is dissolved or suspended in a suitable carrier, for example, olive oil, and is coated on the affected part directly with or without removal of the scales. […] The results obtained by once-coating of nanaomycin A and by twice-coating (the second coating is carried out a week after the first coating) are shown in Tables 2 and 3, respectively.

[8] = system: Trichophyton mentagrophytes; experiment: Minimal inhibitory concentration (agar); type: cell-based; details: 96 h, pH 6.4, potato agar, pH 6.4, 4 days, 27° C.
[9] = system: Escherichia coli NIHJ (JC-2); experiment: Minimal inhibitory concentration (agar); type: cell-based; details: 48 h, pH 7, nutrient agar, pH 7.0, 2 days, 37° C.
Experimental: as §1, §3, §5

For `CC1OC(CC(=O)O)CC2=C1C(=O)c1c(O)cccc1C2=O` (stereo not drawn) [Nanaomycin A, nanaomycin A], the MIC (Escherichia coli NIHJ) was 31.3 µg/mL (≈ 104 µM), the MIC (Staphylococcus aureus) was 2 to 8 µg/mL (≈ 6.62 to 26.5 µM) and the “therapeutic effect on chronic respiratory disease” value (Mycoplasma gallisepticum) was “exhibits therapeutic effect”. The MIC (Aspergillus niger) was 25 µg/mL (≈ 82.7 µM), the MIC [1] was at most 3.1 µg/mL and the MIC (Mycoplasma gallinarum) was 1.56 µg/mL (≈ 5.16 µM). It also gave an MIC (Mycoplasma iners) of 3.12 µg/mL (≈ 10.3 µM), an MIC (Mycoplasma pneumoniae) of 0.013 µg/mL (≈ 0.043 µM) and an MIC ([2]; pH 7.8, Eiken PPLO agar) of 0.05 µg/mL (≈ 0.165 µM). It also gave an MIC ([2]; pH 7.8, Hokken PPLO agar) of under 0.013 µg/mL, an MIC ([3]; pH 7.8, Eiken PPLO agar) of over 25 µg/mL and an MIC ([3]; pH 7.8, Hokken PPLO agar) of 25 µg/mL (≈ 82.7 µM). The MIC ([4]; Acholeplasma laidlawii, 192 h, Hokken PPLO agar, read-out: MIC) was over 25 µg/mL, the MIC ([4]; Eiken PPLO agar) was over 25 µg/mL and the MIC ([5]; pH 7.8, Hokken PPLO agar) was under 0.013 µg/mL. For the same compound, the MIC ([5]; Eiken PPLO agar, read-out: MIC) was 0.1 µg/mL (≈ 0.331 µM), the MIC ([6]; Eiken PPLO agar, pH 7.8, 8 days, 37° C.) was under 0.013 µg/mL and the MIC ([6]; Mycoplasmoides gallisepticum, 192 h, pH 7.8) was under 0.013 µg/mL. The “activity against spiramycin-resistant Mycoplasma gallisepticum” value ([6]; in words) was “strong activity”, the MIC (Shigella flexneri) was 31.3 µg/mL (≈ 104 µM) and the MIC (Pseudomonas aeruginosa) was 500 µg/mL (≈ 1650 µM).

`CC(=O)Oc1cccc2c1C(=O)C1=C(CC(CC(=O)O)OC1C)C2=O` (stereo not drawn) [Acetylnanaomycin A, acetylnanaomycin A] was tested, and the “therapeutic effect on Trichophyton infectious diseases” value [7] was “superior therapeutic effect to nanaomycin A”, the MIC [8] was 0.4 µg/mL (≈ 1.16 µM) and the MIC [9] was over 100 µg/mL.
